From US10676465B2, “GLP-1 receptor agonists and uses thereof” (Pfizer Inc., priority 2018, dated 2020) come the findings set out here.

Assay [1] addresses human GLP-1R (Homo sapiens (Human), UniProt P43220, L260F). As to the kind of experiment: CHO GLP-1R Clone C6 - Assay 2 (HTRF cAMP agonist assay, low receptor density). Conditions: for EC50: cAMP HTRF, geometric mean; for Emax: read-out: Assay 2 Emax (%), CHO GLP-1R Clone C6 (low receptor density). (Time-resolved FRET reads energy transfer from a long-lived donor to a nearby acceptor.)

In assay [2] the target is human GLP-1R (Homo sapiens, UniProt P43220, G168S). As to the kind of experiment: CHO GLP-1R Clone H6 - Assay 1 (HTRF cAMP agonist assay). In kind it is cell-based. Conditions: for EC50: CHO GLP-1R Clone H6, cAMP HTRF, geometric mean; for Assay 1 Emax (%) / Emax: CHO GLP-1R Clone H6, arithmetic mean, relative to saturating GLP-1 (1 μM).
Chain of human GLP-1R (Homo sapiens, UniProt P43220, G168S) (P43220 24-463 G168S limits assumed): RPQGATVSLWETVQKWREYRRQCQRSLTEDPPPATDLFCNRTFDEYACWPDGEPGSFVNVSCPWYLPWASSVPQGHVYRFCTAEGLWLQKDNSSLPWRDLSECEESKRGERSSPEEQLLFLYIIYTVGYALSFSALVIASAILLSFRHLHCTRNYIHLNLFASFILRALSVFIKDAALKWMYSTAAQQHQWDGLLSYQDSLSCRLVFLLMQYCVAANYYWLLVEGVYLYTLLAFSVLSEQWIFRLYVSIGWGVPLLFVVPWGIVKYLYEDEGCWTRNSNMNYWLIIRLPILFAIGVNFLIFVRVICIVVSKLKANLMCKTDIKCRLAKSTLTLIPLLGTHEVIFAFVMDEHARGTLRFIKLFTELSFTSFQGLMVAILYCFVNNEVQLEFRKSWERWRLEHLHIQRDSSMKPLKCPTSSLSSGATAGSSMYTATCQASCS
Setting [3] is: Assay 2 EC50 (nM), CHO GLP-1R Clone C6 (low receptor density).
Where [4] appears, read: arithmetic mean, relative to saturating GLP-1 (1 μM).
The mark [5] stands for this setting: read-out: Assay 2 EC50, CHO GLP-1R Clone C6 (low receptor density).

Read-outs that look alike come from different tables or passages of the source.

Chain of human GLP-1R (Homo sapiens (Human), UniProt P43220, L260F) (P43220 24-463 L260F): as the sequence (P43220 24-463 G168S limits assumed) above, with S145G, L237F counted along it

Turning to `COCCn1c(C2CC23CCN(c2cccc4c2OC(C)(c2ccc(Cl)cc2F)O4)CC3)nc2ccc(C(=O)O)cc21` (single isomer, unassigned) [Example 16, 2-{6-[2-(4-Chloro-2-fluorophenyl)-2-methyl-1,3-benzodioxol-4-yl]-6-azaspiro[2.5]oct-1-yl}-1-(2-methoxyethyl)-1H-benzimidazole-6-carboxylic Acid], the response in assay [1] (setting [3]) was half-maximal at 120 nM (EC50). The Emax (as a rule, the greatest response seen or fitted, relative to the assay's reference) in assay [1] (setting [4]) stood at 64%. Further, in assay [2], the EC50 (in general, the midpoint of the concentration-response curve) was found to be 0.0077 µM and the “Assay 1 Emax (%)” value came out at 90%.
With `COCCn1c(CN2CCC(c3cccc4c3OC(c3ccc(Cl)cc3F)O4)CC2)nc2ccc(C(=O)O)cc21` (stereo not shown) [Example 21, 2-({4-[2-(4-chloro-2-fluorophenyl)-1,3-benzodioxol-4-yl]piperidin-1-yl}methyl)-1-(2-methoxyethyl)-1H-benzimidazole-6-carboxylic acid], the results for the EC50 in assay [1] (setting [3]) and in assay [2] were more than 20000 nM and more than 20 µM, respectively.
As for `Cn1cc(CCn2c(CN3CCC(c4cccc5c4OC(C)(c4ccc(Cl)cc4F)O5)CC3)nc3ccc(C(=O)O)cc32)nn1` (stereo not shown) [Example 60, 2-({4-[2-(4-chloro-2-fluorophenyl)-2-methyl-1,3-benzodioxol-4-yl]piperidin-1-yl}methyl)-1-[2-(1-methyl-1H-1,2,3-triazol-4-yl)ethyl]-1H-benzimidazole-6-carboxylic acid], the EC50 in assay [1] (setting [5]) came to 240 nM; in assay [2], 0.015 µM. In addition, the Emax in assay [1] (setting [4]) came out at 60%; in assay [2], 82%.
For `COCCn1c(CN2CCN(c3cccc4c3OC(C)(c3ccc(Cl)cc3F)O4)CC2)nc2ccc(C(=O)O)cc21` (stereo not shown) [Example 19, 2-({4-[2-(4-chloro-2-fluorophenyl)-2-methyl-1,3-benzodioxol-4-yl]piperazin-1-yl}methyl)-1-(2-methoxyethyl)-1H-benzimidazole-6-carboxylic acid], the EC50 in assay [1] (setting [5]) was found to be 25 nM; in assay [2], 0.0012 µM. Further, the Emax in assay [1] (setting [4]) stood at 100%; in assay [2], 87%.
Turning to `COCCn1c(CN2CCC(c3cccc4c3OC(C)(c3ccc(Cl)cn3)O4)CC2)nc2ccc(C(=O)O)cc21` (stereo not shown) [Example 91, ammonium 2-({4-[2-(5-chloropyridin-2-yl)-2-methyl-1,3-benzodioxol-4-yl]piperidin-1-yl}methyl)-1-(2-methoxyethyl)-1H-benzimidazole-6-carboxylate], the EC50 in assay [1] (setting [5]) was more than 20000 nM. In assay [2], the EC50 is 14 µM and the Emax was determined as 100%.
For the compound `COCCn1c(CN2CCC(c3cccc4c3OC(C)(c3ccc(C)nc3)O4)CC2)nc2ccc(C(=O)O)cc21` (stereo not shown) [Example 42, 1-(2-methoxyethyl)-2-({4-[2-methyl-2-(6-methylpyridin-3-yl)-1,3-benzodioxol-4-yl]piperidin-1-yl}methyl)-1H-benzimidazole-6-carboxylic acid], the EC50 turned out to be 1700 nM in assay [1] (setting [5]) and 0.12 µM in assay [2]. Besides, the Emax in assay [1] (setting [4]) was 83%; in assay [2], 93%.
On to `CC1(c2ccc(Cl)cc2F)Oc2cccc(C3CCN(Cc4nc5ccc(C(=O)O)cc5n4CCN4CCOC4=O)CC3)c2O1` (stereo not shown) [Example 46, 2-({4-[2-(4-chloro-2-fluorophenyl)-2-methyl-1,3-benzodioxol-4-yl]piperidin-1-yl}methyl)-1-[2-(2-oxo-1,3-oxazolidin-3-yl)ethyl]-1H-benzimidazole-6-carboxylic acid], for which the figures for the EC50 in assay [1] (setting [5]) and in assay [2] were 57 nM and 0.0052 µM, respectively. Besides, the values for the Emax in assay [1] (setting [4]) and in assay [2] were 96% and 95%, respectively.
Turning to `CC1(c2ccc(Cl)cc2F)Oc2cccc(C3CCN(Cc4nc5ccc(C(=O)O)cc5n4CC4(O)CCC4)CC3)c2O1` (stereo not shown) [Example 72, 2-({4-[2-(4-chloro-2-fluorophenyl)-2-methyl-1,3-benzodioxol-4-yl]piperidin-1-yl}methyl)-1-[(1-hydroxycyclobutyl)methyl]-1H-benzimidazole-6-carboxylic acid], the results for the EC50 in assay [1] (setting [5]) and in assay [2] were 310 nM and 0.014 µM, respectively. The Emax was 80% in assay [1] (setting [4]) and 76% in assay [2].
`COCCn1c(C2CC23CCN(c2cccc4c2OC(C)(c2ccc(Cl)cc2F)O4)CC3)nc2ccc(C(=O)O)cc21` (single isomer, unassigned) [Example 26, 2-{6-[2-(4-chloro-2-fluorophenyl)-2-methyl-1,3-benzodioxol-4-yl]-6-azaspiro[2.5]oct-1-yl}-1-(2-methoxyethyl)-1H-benzimidazole-6-carboxylic acid]: the EC50 in assay [1] (setting [3]) was more than 20000 nM; in assay [2], more than 20 µM.
As for `CC1(c2ccc(Cl)cc2F)Oc2cccc(C3CCN(Cc4nc5ccc(C(=O)O)cc5n4Cc4ncco4)CC3)c2O1` (stereo not shown) [Example 80, 2-({4-[2-(4-chloro-2-fluorophenyl)-2-methyl-1,3-benzodioxol-4-yl]piperidin-1-yl}methyl)-1-(1,3-oxazol-2-ylmethyl)-1H-benzimidazole-6-carboxylic acid], the EC50 was 6.9 nM in assay [1] (setting [5]) and 0.0011 µM in assay [2]. Also, the results for the Emax in assay [1] (setting [4]) and in assay [2] were 96% and 87%, respectively.
With `CCn1cncc1Cn1c(CN2CCC(c3cccc4c3O[C@](C)(c3ccc(Cl)cc3F)O4)CC2)nc2ccc(C(=O)O)cc21` (single isomer, unassigned) [Example 18, Ammonium 2-({4-[2-(4-chloro-2-fluorophenyl)-2-methyl-1,3-benzodioxol-4-yl]piperidin-1-yl}methyl)-1-[(I-ethyl-1H-imidazol-5-yl)methyl]-1H-benzimidazole-6-carboxylate], the “Assay 2 Emax (%)” value in assay [1] (CHO GLP-1R Clone C6 (low receptor density), arithmetic mean, relative to saturating GLP-1 (1 μM)) is recorded as 87%. The values for the EC50 in assay [1] (setting [5]) and in assay [2] were 1000 nM and 0.21 µM, respectively.
With `COCCn1c(CN2CCC(c3cccc4c3OC(C)(c3ccccc3)O4)CC2)nc2ccc(C(=O)O)cc21` (stereo not shown) [Example 82, 1-(2-methoxyethyl)-2-{[4-(2-methyl-2-phenyl-1,3-benzodioxol-4-yl)piperidin-1-yl]methyl}-1H-benzimidazole-6-carboxylic acid], the results for the EC50 in assay [1] (setting [5]) and in assay [2] were 1000 nM and 0.047 µM, respectively. Moreover, the Emax in assay [1] (setting [4]) and in assay [2] was 83% throughout.
Take `CN(C)CCn1c(CN2CCC(c3cccc4c3OC(C)(c3ccc(Cl)cc3F)O4)CC2)nc2ccc(C(=O)O)cc21` (stereo not shown) [Example 12, 2-({4-[2-(4-Chloro-2-fluorophenyl)-2-methyl-1,3-benzodioxol-4-yl]piperidin-1-yl}methyl)-1-[2-(dimethylamino)ethyl]-1H-benzimidazole-6-carboxylic Acid]: the EC50 in assay [1] (setting [3]) stood at 690 nM; in assay [2] it was 0.029 µM. Further, the Emax in assay [1] (setting [4]) came out at 92%; in assay [2], 83%.
`COCCn1c(CN2CCC(c3cccc4c3OC(C)(c3ccc(Cl)cn3)O4)CC2)nc2ccc(C(=O)O)cc21.N` (stereo not shown) [Example 92, ammonium 2-({4-[2-(5-chloropyridin-2-yl)-2-methyl-1,3-benzodioxol-4-yl]piperidin-1-yl}methyl)-1-(2-methoxyethyl)-1H-benzimidazole-6-carboxylate]: the EC50 in assay [1] (setting [5]) was determined as 72 nM. Further, the maximum response (Emax) in assay [1] (setting [4]) was 83%. Moreover, in assay [2], the EC50 came to 0.0042 µM and the “Assay 1 Emax (%)” value amounted to 90%.
`COCCn1c(CN2CCC(c3cccc4c3OC(C)(c3cccc(F)c3)O4)CC2)nc2ccc(C(=O)O)cc21` (stereo not shown) [Example 31, 2-({4-[2-(3-fluorophenyl)-2-methyl-1,3-benzodioxol-4-yl]piperidin-1-yl}methyl)-1-(2-methoxyethyl)-1H-benzimidazole-6-carboxylic acid]: the EC50 turned out to be 1900 nM in assay [1] (setting [5]) and 0.19 µM in assay [2]. The Emax in assay [1] (setting [4]) amounted to 65%; in assay [2] it was 88%.
With `CC1(c2ccc(Cl)cc2F)Oc2c(F)ccc(C3CCN(Cc4nc5ccc(C(=O)O)cc5n4C[C@@H]4CCO4)CC3)c2O1` (single isomer, unassigned) [Example 96], the EC50 in assay [1] (setting [3]) was 11 nM; in assay [2] it was 0.0011 µM. Further, the Emax in assay [1] (setting [4]) came out at 93%; in assay [2], 85%.
With `CN(CCn1c(CN2CCC(c3cccc4c3OC(C)(c3ccc(Cl)cc3F)O4)CC2)nc2ccc(C(=O)O)cc21)S(C)(=O)=O` (stereo not shown) [Example 71, 2-({4-[2-(4-chloro-2-fluorophenyl)-2-methyl-1,3-benzodioxol-4-yl]piperidin-1-yl}methyl)-1-{2-[methyl(methylsulfonyl)amino]ethyl}-1H-benzimidazole-6-carboxylic acid], the EC50 in assay [1] (setting [5]) amounted to 74 nM; in assay [2], 0.0068 µM. The Emax in assay [1] (setting [4]) and in assay [2] was 80% in each case.
Consider `COCCn1c(CN2CCC(c3cccc4c3OC(C)(c3ccccc3C)O4)CC2)nc2ccc(C(=O)O)cc21` (stereo not shown) [Example 88, 1-(2-methoxyethyl)-2-({4-[2-methyl-2-(2-methylphenyl)-1,3-benzodioxol-4-yl]piperidin-1-yl}methyl)-1H-benzimidazole-6-carboxylic acid], for which the EC50 was determined as 360 nM in assay [1] (setting [5]) and 0.017 µM in assay [2]. Besides, the values for the Emax in assay [1] (setting [4]) and in assay [2] were 91% and 86%, respectively.
As to `Cn1ncnc1Cn1c(CN2CCC(c3cccc4c3OC(C)(c3ccc(Cl)cc3F)O4)CC2)nc2ccc(C(=O)O)cc21` (stereo not shown) [Example 57, 2-({4-[2-(4-chloro-2-fluorophenyl)-2-methyl-1,3-benzodioxol-4-yl]piperidin-1-yl}methyl)-1-[(1-methyl-1H-1,2,4-triazol-5-yl)methyl]-1H-benzimidazole-6-carboxylic acid], the EC50 in assay [1] (setting [5]) amounted to 500 nM; in assay [2] it was 0.015 µM. In addition, the Emax was 98% in assay [1] (setting [4]) and 86% in assay [2].
